Assay results as given in PMC11219860, “A chemogenetic approach for dopamine imaging with tunable sensitivity” (Nature Communications, 2024).

Columns and labels:
msADRA1a = target: T1, msADRA1a (Mus musculus, UniProt P97718); assay: NanoBit complementation assay of mini-Gq recruitment; type: cell-based
T1 construct: expressed in transfected cells; host or cells: HEK293T
Description: To measure the effect of DETQ on mini-G protein recruitment by different GPCRs we used a Nanoluciferase (NanoBit)-based complementation assay[26],[27]. For this HEK293T cells were seeded in six-well plates (Techno Plastic Products) at a density of 300,000 cells per well and co-transfected with plasmids encoding either hmDRD1, msDRD1, msDRD2, msDRD5, msADRA1a, msβ2AR or ms5HT6 carrying a C-terminally fused SmBiT, in combination with the corresponding mini-G protein probe[78] (mini-Gs: for DRD1, DRD5, β2AR, 5HT6R; mini-Gq: for ADRA1a; or mini-Gi: for DRD2), which were N-terminally fused to LgBiT, in a 1:1 DNA ratio using Effectene transfection reagent (Qiagen). […] The plate was incubated at 37 °C for 30 min, before the luminescence signal was measured at 37 °C using a Tecan Spark plate reader before and after the manual addition of 25 µl of either ligand solution (final concentrations ranging from 1 nM to 100 µM), pure Fluorobrite-DMEM or 25 µl of a DETQ solution (1 µM final concentration).
For in vitro luminescence assays, ligand traces were divided by buffer traces, the area under the curve for each trace was calculated using GraphPad Prism, values were normalized and fitted as dose response curve. […] The statistical significance was determined using Welch’s ANOVA followed by Dunnett’s multiple comparison test (comparison of ligand or vehicle to ligand). […]

dLight1.3b = assay: Two-photon dLight1.3b imaging in acute brain slices; set-up: species or system mouse
Description: Coronal brain slices (240 µm) containing the striatum and PFC were prepared from AAV-injected mice after 3–4 weeks of viral expression. Briefly, mice were deeply anesthetized with isoflurane and trans-cardially perfused with ice-cold cutting solution containing (in mM): 75 NaCl, 50 sucrose, 6 MgCl2, 2.5 KCl, 1.2 NaH2PO4, 0.1 CaCl2, 25 NaHCO3, and 2.5 D-glucose (bubbled with 5% CO2 in O2). The brain was quickly removed and sectioned using a vibrating blade microtome (VT1200S; Leica) before slices were transferred to an incubation chamber filled with artificial cerebrospinal fluid (ACSF) containing (in mM): 126 NaCl, 2.5 KCl, 1.2 MgCl2, 1.2 NaH2PO4, 2.5 CaCl2, 21.4 NaHCO3, 11.1 D-glucose and 10 µM MK-801 (34 °C, bubbled with 5% CO2 in O2, pH 7.4). After 45 min equilibration, slices were individually transferred to a recording chamber for 2 P imaging. NMDA, AMPA, GABA-A, nicotinic, and muscarinic receptors were blocked using 10 µM MK801, 10 µM DNQX, 100 µM picrotoxin, 1 µM DHBE, and 0.3 µM scopolamine, respectively. Changes of dLight fluorescence were measured by 2 P laser scanning microscopy, using a custom-built BX51WI microscope (Olympus). Excitation (920 nm) was provided by a pulsed Ti:Sapphire laser (Chameleon Ultra I; Coherent) and scanned using a pair of X-Y galvanometer mirrors (6215; Cambridge Technology). Emission was collected by a water immersion objective (60x, N.A. 1.00; Olympus) and filtered (ET680sp and ET525/50m-2P; Chroma) before detection by GaAsP photomultiplier tube (PMT, H10770PA-40; Hamamatsu). The temporal kinetics of fluorescence changes were captured using fast acquisition speed (2 kHz), ‘spot photometry’ (Toronado; B.W. Strowbridge), by scanning the laser around a circular path ([…] diameter) centered at the tip of the stimulating electrode or iontophoresis pipette which was visualized in the red channel (ET620/60 m; Chroma). The spatial dynamics of dLight fluorescence were captured by rasterized movie acquisition (30 × 40 µm, 3 Hz) and analyzed using ImageJ. Exogenous DA was applied by iontophoresis, using a thin-walled glass pipette filled with DA (1 M) and sulforhodamine 101 (300 µM), and ejected by short pulses of positive current ( + 20 to +200 nA, 5 ms) with a negative retention current to prevent DA leakage (−10 to −15 nA). Endogenous DA release was evoked by electrical stimulation using a double-tipped electrode pulled from septum theta glass capillaries (WPI), visualized with sulforhodamine 101 (10 µM). A single pulse (10 µA, 0.5 ms) was used to evoke DA release in striatal slices, while a train of stimuli (5 × 20 µA at 25 Hz) was used in cortical slices. Changes of fluorescence are expressed as ∆F/F0, wherein baseline fluorescence (F0) was measured from the 300 ms before DA stimulation in spot photometry measurements, or defined as the average of 10 frames preceding stimulation in rasterized movies. Peak ∆F/F0 was calculated by maximum peak detection from the time period following stimulation ( ~ 500 ms) or from the rasterized frame immediately following stimulation. Data were analyzed in AxoGraph (J. Clements) and ImageJ.

[1] = tested on: 14 other human targets (including D5, D2, Beta-1, Beta-2 and 5-HT6); set-up: method as in Hao et al., 2019; details: at 10 uM; ref Hao et al., 2019; cited from earlier work

T1 sequence (P97718 whole entry): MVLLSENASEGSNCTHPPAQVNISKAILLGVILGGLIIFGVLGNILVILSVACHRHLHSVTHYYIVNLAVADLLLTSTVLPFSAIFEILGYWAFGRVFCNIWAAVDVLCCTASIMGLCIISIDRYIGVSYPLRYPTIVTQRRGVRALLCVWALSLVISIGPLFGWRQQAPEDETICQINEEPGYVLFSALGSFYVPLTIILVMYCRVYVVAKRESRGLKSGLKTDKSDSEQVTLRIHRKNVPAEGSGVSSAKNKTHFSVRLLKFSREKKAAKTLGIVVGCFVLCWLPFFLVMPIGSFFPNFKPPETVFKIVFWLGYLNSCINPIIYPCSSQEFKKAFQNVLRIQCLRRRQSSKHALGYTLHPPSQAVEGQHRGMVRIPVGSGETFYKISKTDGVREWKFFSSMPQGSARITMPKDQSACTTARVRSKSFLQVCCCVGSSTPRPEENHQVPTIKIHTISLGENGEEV

C[C@H]1c2cccc(C(C)(C)O)c2C[C@H](CO)N1C(=O)Cc1c(Cl)cccc1Cl [DETQ, 2-(2,6-dichlorophenyl)-1-((1S,3R)-3-(hydroxymethyl)-5-(2-hydroxypropan-2-yl)-1-methyl-3,4-dihydroisoquinolin-2(1H)-yl)ethan-1-one]
agonist mode: direct agonist effect (msADRA1a; DETQ 1 µM alone): no direct agonist effect | allosteric modulator mode: effect on agonist dose-response (msADRA1a; DETQ 1 µM, NE): No allosteric effect | fluorescence changes evoked by train of stimuli in PFC slices (dLight1.3b; 5 × 20 µA, 0.5 ms, 25 Hz, DETQ): unmask small increases | area of dLight1.3b ∆F/F0 >2σ noise (dLight1.3b; DA iontophoresis 20 nA, DETQ 200 nM): significantly increased | peak ∆F/F0 and area (>2σ noise) evoked by single electrical stimulation (dLight1.3b; dorsal striatum slices, 10 µA, 0.5 ms, DETQ): significantly enhanced | decay time of fluorescence changes (spot photometry) (dLight1.3b; ejection current 50 nA, DETQ 200 nM): slowed | increase of dLight sensitivity (peak ∆F/F0 over ejection currents) (dLight1.3b; striatal slices, DA iontophoresis, DETQ 200 nM): 2.6 fold | activity in potentiator mode [1]: no activity was found
